For experiment [1], the target named is Serine/threonine-protein kinase 16 (Homo sapiens) (UniProt O75716). The experiment in a line: Inhibition of STK16 (unknown origin) assessed as residual activity at 1000 nM by KINOMEscan analysis relative to control.
Experiment [2] addresses Protein-tyrosine kinase 6 (Homo sapiens) (UniProt Q13882). The experiment in a line: Inhibition of BRK (unknown origin) assessed as residual activity at 1000 nM by KINOMEscan analysis relative to control.
For experiment [3], the target named is T1, Hormonally up-regulated neu tumor-associated kinase (Homo sapiens) (UniProt P57058).
T1 sequence (whole entry): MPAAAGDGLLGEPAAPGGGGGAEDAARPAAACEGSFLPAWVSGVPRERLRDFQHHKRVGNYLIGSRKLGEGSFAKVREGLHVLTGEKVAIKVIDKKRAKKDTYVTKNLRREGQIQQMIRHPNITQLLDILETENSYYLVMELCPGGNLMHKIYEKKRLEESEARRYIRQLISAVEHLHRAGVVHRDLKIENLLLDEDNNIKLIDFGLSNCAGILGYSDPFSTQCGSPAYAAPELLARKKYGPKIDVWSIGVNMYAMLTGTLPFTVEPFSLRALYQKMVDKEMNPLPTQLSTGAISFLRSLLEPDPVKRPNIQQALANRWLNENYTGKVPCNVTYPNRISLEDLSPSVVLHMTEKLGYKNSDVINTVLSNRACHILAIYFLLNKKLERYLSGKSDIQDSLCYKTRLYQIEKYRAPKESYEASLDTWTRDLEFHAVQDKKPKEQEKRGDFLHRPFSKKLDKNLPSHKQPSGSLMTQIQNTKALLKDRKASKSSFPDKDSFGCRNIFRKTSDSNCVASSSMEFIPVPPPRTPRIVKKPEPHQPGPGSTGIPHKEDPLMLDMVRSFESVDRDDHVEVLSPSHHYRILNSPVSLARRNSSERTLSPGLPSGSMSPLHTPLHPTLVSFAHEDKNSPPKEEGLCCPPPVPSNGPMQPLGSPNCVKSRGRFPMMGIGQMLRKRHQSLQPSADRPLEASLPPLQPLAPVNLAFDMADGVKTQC
Kind of experiment: Inhibition of HUNK (unknown origin) assessed as residual activity at 1000 nM by KINOMEscan analysis relative to control.

For experiment [4], the target named is Serine/threonine-protein kinase 33 (Homo sapiens) (UniProt Q9BYT3). Kind of experiment: Inhibition of STK33 (unknown origin) assessed as residual activity at 1000 nM by KINOMEscan analysis relative to control.
For experiment [5], the system named is Serine/threonine-protein kinase B-raf (Homo sapiens), P15056 [V600E]. Kind of experiment: Inhibition of BRAF V600E mutant (unknown origin) assessed as residual activity at 1000 nM by KINOMEscan analysis relative to control.
Chain of Serine/threonine-protein kinase B-raf (Homo sapiens), P15056 [V600E] (P15056 whole entry V600E): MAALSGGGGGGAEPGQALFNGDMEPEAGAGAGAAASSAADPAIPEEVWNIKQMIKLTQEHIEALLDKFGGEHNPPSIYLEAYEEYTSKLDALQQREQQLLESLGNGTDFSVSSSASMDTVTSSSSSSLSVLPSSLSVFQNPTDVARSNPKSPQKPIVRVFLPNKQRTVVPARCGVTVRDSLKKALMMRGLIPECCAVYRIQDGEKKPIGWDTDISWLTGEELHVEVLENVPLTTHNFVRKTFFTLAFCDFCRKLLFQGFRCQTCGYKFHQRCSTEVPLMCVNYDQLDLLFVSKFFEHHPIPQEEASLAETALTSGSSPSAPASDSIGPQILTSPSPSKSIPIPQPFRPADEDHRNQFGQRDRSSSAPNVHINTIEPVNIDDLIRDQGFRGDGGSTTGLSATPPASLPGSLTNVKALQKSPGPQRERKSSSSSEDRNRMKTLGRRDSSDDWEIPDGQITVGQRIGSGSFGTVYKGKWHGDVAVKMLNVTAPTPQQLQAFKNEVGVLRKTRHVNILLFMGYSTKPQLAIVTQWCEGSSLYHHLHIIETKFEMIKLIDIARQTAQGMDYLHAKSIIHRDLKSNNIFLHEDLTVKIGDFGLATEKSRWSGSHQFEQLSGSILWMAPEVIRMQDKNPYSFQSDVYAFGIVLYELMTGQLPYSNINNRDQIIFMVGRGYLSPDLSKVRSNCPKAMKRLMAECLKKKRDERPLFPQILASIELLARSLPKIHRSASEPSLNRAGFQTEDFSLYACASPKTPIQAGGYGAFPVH
For experiment [6], the target named is T2, Serine/threonine-protein kinase NLK (Homo sapiens) (UniProt Q9UBE8).
T2 sequence (whole entry): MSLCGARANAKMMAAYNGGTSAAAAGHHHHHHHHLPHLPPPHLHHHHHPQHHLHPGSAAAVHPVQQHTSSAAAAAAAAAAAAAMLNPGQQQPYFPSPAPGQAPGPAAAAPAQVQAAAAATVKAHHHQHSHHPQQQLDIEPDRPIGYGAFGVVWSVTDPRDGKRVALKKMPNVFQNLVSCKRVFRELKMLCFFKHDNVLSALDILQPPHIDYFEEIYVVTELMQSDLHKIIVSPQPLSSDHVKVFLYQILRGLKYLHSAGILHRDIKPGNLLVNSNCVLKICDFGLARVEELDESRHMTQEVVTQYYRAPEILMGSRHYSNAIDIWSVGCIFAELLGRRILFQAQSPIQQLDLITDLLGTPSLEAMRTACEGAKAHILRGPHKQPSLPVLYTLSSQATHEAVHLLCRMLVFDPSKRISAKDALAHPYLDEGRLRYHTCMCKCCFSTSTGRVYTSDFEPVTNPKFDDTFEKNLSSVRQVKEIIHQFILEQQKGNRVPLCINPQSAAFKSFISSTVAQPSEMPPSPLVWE
The experiment in a line: Inhibition of NLK (unknown origin) assessed as residual activity at 1000 nM by KINOMEscan analysis relative to control.

In experiment [7] the test system is Mast/stem cell growth factor receptor Kit (Homo sapiens), P10721 [V559D,T670I]. Kind of experiment: Inhibition of KIT V559D/T670I mutant (unknown origin) assessed as residual activity at 1000 nM by KINOMEscan analysis relative to control.
Chain of Mast/stem cell growth factor receptor Kit (Homo sapiens), P10721 [V559D,T670I] (P10721 whole entry V559D/T670I): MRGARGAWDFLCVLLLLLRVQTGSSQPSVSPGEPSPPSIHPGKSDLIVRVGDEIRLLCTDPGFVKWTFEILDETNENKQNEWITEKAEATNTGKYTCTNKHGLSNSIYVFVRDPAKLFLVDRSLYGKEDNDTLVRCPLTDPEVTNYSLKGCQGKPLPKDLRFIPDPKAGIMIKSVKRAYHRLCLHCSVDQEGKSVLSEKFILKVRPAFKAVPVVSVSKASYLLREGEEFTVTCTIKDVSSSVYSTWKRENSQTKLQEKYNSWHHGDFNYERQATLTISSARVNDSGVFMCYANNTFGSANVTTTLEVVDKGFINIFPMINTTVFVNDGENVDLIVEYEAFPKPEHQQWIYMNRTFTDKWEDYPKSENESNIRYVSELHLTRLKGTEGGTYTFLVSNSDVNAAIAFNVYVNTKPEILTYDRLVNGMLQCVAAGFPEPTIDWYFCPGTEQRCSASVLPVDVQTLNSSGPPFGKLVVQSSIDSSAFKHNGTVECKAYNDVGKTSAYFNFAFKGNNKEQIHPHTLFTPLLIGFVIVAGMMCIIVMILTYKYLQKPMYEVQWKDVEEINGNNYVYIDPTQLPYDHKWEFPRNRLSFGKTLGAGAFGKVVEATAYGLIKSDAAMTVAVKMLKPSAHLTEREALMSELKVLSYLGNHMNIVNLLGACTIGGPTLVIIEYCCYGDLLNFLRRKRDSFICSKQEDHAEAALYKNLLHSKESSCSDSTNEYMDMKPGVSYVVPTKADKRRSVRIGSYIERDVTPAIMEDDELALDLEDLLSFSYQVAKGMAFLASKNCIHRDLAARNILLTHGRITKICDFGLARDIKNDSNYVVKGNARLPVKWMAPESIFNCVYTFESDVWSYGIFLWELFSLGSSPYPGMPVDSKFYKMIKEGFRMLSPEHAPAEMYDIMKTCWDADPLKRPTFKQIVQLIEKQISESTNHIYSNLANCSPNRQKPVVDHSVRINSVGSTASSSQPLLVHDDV
The target of experiment [8] is Serine/threonine-protein kinase Nek7 (Homo sapiens) (UniProt Q8TDX7). Kind of experiment: Inhibition of NEK7 (unknown origin) assessed as residual activity at 1000 nM by KINOMEscan analysis relative to control.
Chain of Serine/threonine-protein kinase Nek7 (Homo sapiens) (Q8TDX7 whole entry, looked up): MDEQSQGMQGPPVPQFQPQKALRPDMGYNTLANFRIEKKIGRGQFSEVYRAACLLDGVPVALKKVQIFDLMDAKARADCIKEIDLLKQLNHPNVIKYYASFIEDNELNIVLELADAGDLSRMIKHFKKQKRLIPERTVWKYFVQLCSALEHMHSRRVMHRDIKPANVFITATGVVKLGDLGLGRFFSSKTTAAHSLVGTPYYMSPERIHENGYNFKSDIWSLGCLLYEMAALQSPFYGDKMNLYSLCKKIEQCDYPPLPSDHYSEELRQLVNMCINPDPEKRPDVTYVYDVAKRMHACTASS
Experiment [9] deals with Tyrosine-protein kinase FRK (Homo sapiens) (UniProt P42685). Kind of experiment: Inhibition of FRK (unknown origin) assessed as residual activity at 1000 nM by KINOMEscan analysis relative to control.
Chain of Tyrosine-protein kinase FRK (Homo sapiens) (P42685 whole entry): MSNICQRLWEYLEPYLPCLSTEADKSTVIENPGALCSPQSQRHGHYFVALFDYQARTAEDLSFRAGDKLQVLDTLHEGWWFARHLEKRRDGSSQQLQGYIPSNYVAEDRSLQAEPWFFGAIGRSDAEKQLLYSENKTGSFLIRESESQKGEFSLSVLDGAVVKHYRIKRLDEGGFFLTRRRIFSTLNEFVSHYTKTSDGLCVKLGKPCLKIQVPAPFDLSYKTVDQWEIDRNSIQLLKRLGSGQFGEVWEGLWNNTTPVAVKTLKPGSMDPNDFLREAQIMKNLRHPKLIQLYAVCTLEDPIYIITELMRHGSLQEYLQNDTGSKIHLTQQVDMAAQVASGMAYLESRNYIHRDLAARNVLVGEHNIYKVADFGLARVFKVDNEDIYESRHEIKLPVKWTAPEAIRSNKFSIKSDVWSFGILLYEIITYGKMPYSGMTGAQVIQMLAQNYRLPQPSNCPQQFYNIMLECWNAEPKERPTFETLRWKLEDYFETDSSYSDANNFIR
The target of experiment [10] is Mitogen-activated protein kinase kinase kinase 4 (Homo sapiens) (UniProt Q9Y6R4). The experiment in a line: Inhibition of MAP3K4 (unknown origin) assessed as residual activity at 1000 nM by KINOMEscan analysis relative to control.
Chain of Mitogen-activated protein kinase kinase kinase 4 (Homo sapiens) (Q9Y6R4 whole entry): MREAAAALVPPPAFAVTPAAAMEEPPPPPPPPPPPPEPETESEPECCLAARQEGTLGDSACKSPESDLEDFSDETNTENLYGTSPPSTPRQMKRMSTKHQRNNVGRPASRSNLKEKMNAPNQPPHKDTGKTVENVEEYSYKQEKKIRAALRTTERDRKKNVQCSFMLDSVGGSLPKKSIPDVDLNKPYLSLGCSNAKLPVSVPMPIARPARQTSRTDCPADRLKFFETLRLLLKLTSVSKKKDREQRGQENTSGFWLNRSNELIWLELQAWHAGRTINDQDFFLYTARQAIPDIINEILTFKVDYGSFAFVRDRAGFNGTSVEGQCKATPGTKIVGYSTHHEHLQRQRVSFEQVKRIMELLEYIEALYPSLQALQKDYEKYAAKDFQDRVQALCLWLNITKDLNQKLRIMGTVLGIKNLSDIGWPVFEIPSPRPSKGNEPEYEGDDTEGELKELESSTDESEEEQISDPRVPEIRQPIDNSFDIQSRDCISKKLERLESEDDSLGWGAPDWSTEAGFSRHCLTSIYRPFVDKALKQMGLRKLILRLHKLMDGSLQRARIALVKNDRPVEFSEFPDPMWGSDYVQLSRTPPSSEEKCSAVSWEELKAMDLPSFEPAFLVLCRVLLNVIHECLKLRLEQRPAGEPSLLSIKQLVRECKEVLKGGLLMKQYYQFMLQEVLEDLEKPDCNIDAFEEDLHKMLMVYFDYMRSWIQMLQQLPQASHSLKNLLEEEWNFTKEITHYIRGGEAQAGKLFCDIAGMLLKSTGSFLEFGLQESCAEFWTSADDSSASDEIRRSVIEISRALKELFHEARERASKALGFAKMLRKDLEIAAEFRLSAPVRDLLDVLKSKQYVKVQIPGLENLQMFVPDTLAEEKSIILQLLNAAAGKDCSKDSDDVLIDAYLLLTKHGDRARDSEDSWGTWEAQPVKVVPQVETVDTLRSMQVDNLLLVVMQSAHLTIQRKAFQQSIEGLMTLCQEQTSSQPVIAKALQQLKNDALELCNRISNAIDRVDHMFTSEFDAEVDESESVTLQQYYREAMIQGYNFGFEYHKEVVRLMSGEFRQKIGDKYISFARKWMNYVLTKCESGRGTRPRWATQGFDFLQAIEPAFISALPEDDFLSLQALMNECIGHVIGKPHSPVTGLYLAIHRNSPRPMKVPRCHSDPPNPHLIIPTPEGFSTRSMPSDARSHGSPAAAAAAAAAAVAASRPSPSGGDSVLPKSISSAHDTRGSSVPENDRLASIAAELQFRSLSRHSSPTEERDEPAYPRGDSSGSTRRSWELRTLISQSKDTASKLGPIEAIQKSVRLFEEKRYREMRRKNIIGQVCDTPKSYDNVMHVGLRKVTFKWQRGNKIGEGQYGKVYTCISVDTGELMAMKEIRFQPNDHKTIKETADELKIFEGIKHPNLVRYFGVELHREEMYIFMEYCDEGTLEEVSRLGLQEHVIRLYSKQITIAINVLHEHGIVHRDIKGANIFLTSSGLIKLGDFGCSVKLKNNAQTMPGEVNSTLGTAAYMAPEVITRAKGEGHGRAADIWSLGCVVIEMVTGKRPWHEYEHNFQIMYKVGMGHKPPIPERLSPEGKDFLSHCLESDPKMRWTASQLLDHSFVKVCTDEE
The target in experiment [11] is Serine/threonine-protein kinase WNK3 (Homo sapiens) (UniProt Q9BYP7). The experiment in a line: Inhibition of WNK3 (unknown origin) assessed as residual activity at 1000 nM by KINOMEscan analysis relative to control.
Experiment [12] addresses T3, Serine/threonine-protein kinase Chk1 (Homo sapiens) (UniProt O14757).
T3 sequence (whole entry): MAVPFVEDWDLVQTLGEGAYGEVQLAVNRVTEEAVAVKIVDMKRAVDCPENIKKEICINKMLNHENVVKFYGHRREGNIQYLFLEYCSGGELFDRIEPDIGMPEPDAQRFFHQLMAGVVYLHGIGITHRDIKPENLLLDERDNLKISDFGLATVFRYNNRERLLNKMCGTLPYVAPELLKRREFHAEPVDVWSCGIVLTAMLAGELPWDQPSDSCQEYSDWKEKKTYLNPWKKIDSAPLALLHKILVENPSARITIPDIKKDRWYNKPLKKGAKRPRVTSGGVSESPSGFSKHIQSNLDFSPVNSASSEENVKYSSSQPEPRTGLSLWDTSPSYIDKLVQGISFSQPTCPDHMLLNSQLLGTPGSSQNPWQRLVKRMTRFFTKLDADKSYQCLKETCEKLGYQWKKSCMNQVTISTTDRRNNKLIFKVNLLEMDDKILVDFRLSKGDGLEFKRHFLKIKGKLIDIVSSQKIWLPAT
The experiment in a line: Inhibition of CHEK1 (unknown origin) assessed as residual activity at 1000 nM by KINOMEscan analysis relative to control.

In experiment [13] the target is Microtubule-associated serine/threonine-protein kinase 1 (Homo sapiens) (UniProt Q9Y2H9). Kind of experiment: Inhibition of MAST1 (unknown origin) assessed as residual activity at 1000 nM by KINOMEscan analysis relative to control.

Chain of Protein-tyrosine kinase 6 (Homo sapiens) (Q13882 whole entry, looked up): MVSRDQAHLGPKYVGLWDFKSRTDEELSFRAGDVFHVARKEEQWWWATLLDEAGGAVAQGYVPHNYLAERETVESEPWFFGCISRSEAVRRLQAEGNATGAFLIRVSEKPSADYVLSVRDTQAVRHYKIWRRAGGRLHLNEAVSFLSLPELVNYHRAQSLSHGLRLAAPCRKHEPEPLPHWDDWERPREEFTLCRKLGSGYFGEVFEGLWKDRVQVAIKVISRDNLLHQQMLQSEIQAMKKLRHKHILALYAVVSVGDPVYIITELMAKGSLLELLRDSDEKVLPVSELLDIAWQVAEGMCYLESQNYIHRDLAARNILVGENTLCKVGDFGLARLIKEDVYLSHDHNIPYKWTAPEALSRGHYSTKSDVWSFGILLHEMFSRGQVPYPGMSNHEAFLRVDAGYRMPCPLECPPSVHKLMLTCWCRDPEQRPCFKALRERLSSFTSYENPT
Chain of Serine/threonine-protein kinase 16 (Homo sapiens) (O75716 whole entry): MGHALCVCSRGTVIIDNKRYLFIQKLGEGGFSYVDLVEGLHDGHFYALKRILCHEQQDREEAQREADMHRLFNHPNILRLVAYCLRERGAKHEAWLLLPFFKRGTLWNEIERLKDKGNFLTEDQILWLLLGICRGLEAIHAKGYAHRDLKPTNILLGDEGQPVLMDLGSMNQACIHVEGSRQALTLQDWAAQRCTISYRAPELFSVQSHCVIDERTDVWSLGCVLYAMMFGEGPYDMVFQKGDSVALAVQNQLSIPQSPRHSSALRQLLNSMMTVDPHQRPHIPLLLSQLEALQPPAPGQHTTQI

For `COc1cc2ncnc(N[C@H](C)c3cccc4ccccc34)c2cc1OC`, the Activity in [1] was found to be 93%; in [2], 100%; in [3], 76%; in experiment [4], 68%; in experiment [5] it was 97%; in experiment [6] it was 86%. Moreover, the Activity amounted to 73% in [7]; 100% in experiment [8]; 94% in [9]; 96% in experiment [10]; 99% in [11]; 100% in [12]. Moreover, in experiment [13], the Activity stood at 91%.

As to `COc1cc2nc(C)nc(N[C@H](C)c3cccc(-c4cn[nH]c4)c3)c2cc1OC`, the Activity in experiment [1] came to 74%; in experiment [2], 57%; in experiment [3], 94%; in [4] it was 100%; in [5] it was 65%; in [6], 54%. For the same molecule, the Activity was 92% in experiment [7]; 89% in [8]; 76% in experiment [9]; 50% in experiment [10]; 93% in experiment [11]; 98% in experiment [12]. Besides, the Activity in [13] stood at 64%.

Source of the values: ChEMBL document CHEMBL5678818, “Discovery of potent SOS1 inhibitors that block RAS activation via disruption of the RAS-SOS1 interaction” (Proc Natl Acad Sci U S A, 2019).
